Patent US20060275229A1, “Skin care active complex and methods of using same” (priority 2005, published 2006)

Columns and labels:
[1] = Inhibition of UV-induced lipid peroxidation of phospholipid liposomes (antioxidant test, malonaldehyde); format: biochemical; conditions: lecithin liposomes, UV light for 4 hours
Experimental: Unsaturated fatty acids are present in the phospholipids of cell membranes. Their oxidation compromises membrane integrity and also leads to the generation of breakdown products that are damaging to other important cellular components such as proteins and nucleic acids. Since the skin is exposed to large doses of UV light from the sun, UV-induced peroxidation is a significant route of oxidant damage. […] The left column of Table 2 lists the compounds that were tested, while the right column lists each corresponding compound the effective concentration that inhibits oxidation by 50%. The assay was performed by irradiating a suspension of lecithin liposomes with UV light for 4 hours in the absence of or in the presence of the different compounds listed in the table. […] The rate of lipid oxidation was calculated from the increase in malonaldehyde content.

[2] = biological target: T1, human neutrophil elastase (Homo sapiens, UniProt P08246); experiment: Neutrophil elastase inhibition, chromogenic substrate assay; format: biochemical
T1 construct: purchased Athens Research and Technology, GA
T1 sequence (P08246 30-267): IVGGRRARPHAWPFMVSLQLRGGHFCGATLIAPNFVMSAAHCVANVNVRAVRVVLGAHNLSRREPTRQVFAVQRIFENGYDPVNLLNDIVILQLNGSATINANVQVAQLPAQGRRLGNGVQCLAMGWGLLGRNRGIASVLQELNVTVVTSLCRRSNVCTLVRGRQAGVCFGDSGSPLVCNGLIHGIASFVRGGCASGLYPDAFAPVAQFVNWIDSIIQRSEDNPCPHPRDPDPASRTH
From the text: In combination, these three enzymes are capable of extensively degrading all of the protein components of the extracellular matrix (ECM) including collagens I and III (the major collagen types in the skin), elastin and the various glycoprotein components (e.g., fibronectin). Elevated expression of these proteases is triggered by inflammatory stimuli such as UV light, and their activity results in ECM damage that is a major component of skin aging.
Ursolic acid is a powerful inhibitor of elastase activity. The inhibition activity of ursolic acid was tested by incubating it with a human neutrophil elastase sample (obtained from Athens Research and Technology, GA) for 10 minutes with a chromogenic substrate, given below. The change in optical density of the substrate at 405 nm was recorded one reading per minute at room temperature reaction mixtures in a 96-well plate. The reaction mixture contains 300 µg/ml methoxysuccinyl-Ala-Ala-Pro-Val-pNA (chromogenic substrate); […] human neutrophil elastase at concentrations in the range 0.55%-3.3%; 70 mM Tris-HCl (pH 8); and 200 mM NaCl.
The % inhibition is calculated relative to the no-sample control.

Q: For `CC(=O)Oc1c(C)c(C)c2c(c1C)CCC(C)(CCC[C@H](C)CCC[C@H](C)CCCC(C)C)O2` (some centres unmarked) [Vitamin E acetate], which “EC50 (concentration that inhibits oxidation by 50%)” value [1] is on record?
A: 0.022 % w/w

Q: Which “EC50 (concentration that inhibits oxidation by 50%)” value [1] does the source give for `O=C(O[C@@H]1Cc2c(O)cc(O)cc2O[C@@H]1c1cc(O)c(O)c(O)c1)c1cc(O)c(O)c(O)c1` [Epigallocatechin gallate (EGCG), Epigallocatechin gallate] here?
A: 0.0003 % w/w

Q: What does the source list for `C[C@H]1[C@H](C)CC[C@]2(C(=O)O)CC[C@]3(C)C(=CC[C@@H]4[C@@]5(C)CC[C@H](O)C(C)(C)[C@@H]5CC[C@]43C)[C@H]12` [Ursolic Acid, Ursolic acid]?
A: Elastase Inhibition (%) ([2]; concentration 0.0004 %): 26%; Elastase Inhibition (%) ([2]; concentration 0.0008 %): 44%; Elastase Inhibition (%) ([2]; concentration 0.0012 %): 58%; Elastase Inhibition (%) ([2]; concentration 0.002 %): 72%; Elastase Inhibition (%) ([2]; concentration 0.004 %): 81%; Elastase Inhibition (%) ([2]; concentration 0.006 %): 84%; Elastase Inhibition (%) ([2]; concentration 0.01 %): 86%; IC50 value for elastase inhibition ([2]; human neutrophil elastase, chromogenic substrate, Example 4): about 0.0008%

Q: Which “EC50 (concentration that inhibits oxidation by 50%)” value [1] does the source give for `O=C1O[C@H]([C@@H](O)CO)C(O)=C1O` [Vitamin C (Ascorbic Acid), Ascorbic Acid] here?
A: 0.002 % w/w
